Data from publication PMC3776562 (Journal of the American Chemical Society, 2013).
Blank lines part the entries; values can stand above or below the molecule they belong to.

Key:
Mcl-1 [1] = molecular target: T1, Mcl-1 (Mus musculus, UniProt P97287); assay: Stopped-flow fluorescence association kinetics of PUMA constructs with Mcl-1; type: binding; details: chemical denaturants, lowering total protein concentration, altering temperature
T1 construct: with 151 N-terminal residues and 23 C-terminal residues removed; hexahistidine tag with thrombin cleavage site (N, cleaved yes); made in house; host or cells: Escherichia coli C41 (DE3)
Description: The synthetic genes for truncated mouse Mcl-1 (UniProt P97287) with 151 N-terminal residues and 23 C-terminal residues removed (Figure S2C) and GB1-PUMA (Figure S2D) were obtained from Genscript. The genes were inserted into a modified version of the pRSET A vector that encodes an N-terminal hexahistidine tag with a thrombin cleavage site between the tag and the protein. Due to the cleavage of thrombin, a GS is added at the N-termini of Mcl-1. Protein expression was carried out in Escherichia coli C41 (DE3) grown in LB media at 37 °C. […] Identity was confirmed using mass spectrometry, the concentration of GB1-PUMA was determined by the method of Gill von Hippel,[36] and the concentration of Mcl-1 was determined using amino acid analysis.
Mouse PUMA peptide, residues 128–161 (Uniprot Q99ML1) with the M144I mutation used in the NMR structure 2ROC[26], together with N-terminal acetylation and C-terminal amidation, was synthesized by Selleck Chemicals. […] Peptide concentration was determined using amino acid analysis and identity confirmed using mass spectrometry. […]
Association kinetics were monitored by following the change in intrinsic fluorescence on an SX18 or SX20 stopped-flow spectrometer (Applied Photophysics). […] Association kinetics were analyzed using eq 3([51]) that describes irreversible association of two proteins at initial concentrations [A]0 and [B]0: [drawing 3] […]

[2] = Intrinsic tryptophan fluorescence emission spectra; type: physicochemical; details: excitation at 280 nm; unbound
Description: (§1) Intrinsic tryptophan fluorescence was also used to probe the structural changes in these proteins upon association.
(§2) Figure S4. Fluorescence spectra of Mcl-1 and PUMA peptide show Mcl-1 is folded, PUMA is unfolded and binding occurs. […]
(§3) fluorescence spectrum characteristic of buried tryptophans whereas PUMA (blue) […]
(§4) An increase in fluorescence is seen upon mixing 1 µM: 1 µM of Mcl-1 and PUMA peptide. 1:1 complex (black solid line) […]
(§5) a greater signal than the spectrum predicted for no interaction (dashed line), which is the sum of the PUMA alone (blue) and Mcl-1 alone (magenta) spectra.

[3] = Circular dichroism, unbound PUMA helicity; type: physicochemical; details: CD
Description: (§6) CD scans were taken in an Applied Photophysics Chirascan, using 10 to 2 mm path length cuvettes. Percentage helicity calculated using the mean residue ellipticity at 222 nm.[24]
Figure S9. Changes in helicity of PUMA peptide with solvent and temperature.
Due to the oligomerization of the PUMA peptide circular dichroism (CD) was recorded at the low concentration of 1 µM with a 10 mm pathlength cuvette to maximize signal.
Errors due to buffer subtraction and high absorbances prevent quantitative analysis of these spectra. However, each individual figure was recorded on the same day so qualitative conclusions can be drawn. (a) The helicity of the PUMA peptide is highly temperature dependent, with lower temperatures favoring helical conformations. (b) Increasing concentration of the denaturant urea results in the disfavoring of helical […]
significant change in CD signal.

folded Bcl-2 members = details: cited from earlier work
Source text: The binding of BH3 regions to folded Bcl-2 family members is, due to their important physiological role and the large number of homologues, one of the most heavily studied coupled folding and binding reactions, particularly with respect to equilibrium binding constants obtained and structures solved.[21],[29] BH3 peptides have potential therapeutic value and have been the focus for the design of peptide-based mimics, including hydrocarbon staples,[42] α/β-peptides,[43] miniature proteins[44] and photoswitchable peptides.[45] To understand the general principles of binding, knowledge of kinetic ...

Mcl-1 [4] = molecular target: T1, Mcl-1; assay: Fluorescence change on complex formation with Mcl-1; details: binding to Mcl-1; intrinsic tryptophan fluorescence
Description: as §1, §2, §3, §4, §5

[5] = PUMA peptide oligomerization (CD, size-exclusion chromatography, SDS-PAGE); type: physicochemical
Source text: as §6
Figure S3. PUMA peptide undergoes reversible oligomerization to an α-helical structure. (a) The Circular dichroism spectra of the PUMA peptide becomes more α-helical at higher concentrations, consistent with the formation of an α-helical oligomer.
(b) Oligomers are visible on denaturing SDS-PAGE gel of PUMA peptide at ~10-100 µM concentrations. White numbers refer to elution volumes from FPLC trace (c). (c) […]
PUMA oligomers (i), for comparison a trace for a similar size monomeric peptide is […]
-200 Monomeric BH3 peptide
(1 picture or pasted object on this page, not shown here)

Mcl-1 [6] = molecular target: T1, Mcl-1; assay: Urea dependence of association rate constant; type: binding
Source text: Urea is a denaturing cosolvent used in protein folding studies to energetically disfavor structured states. […] However, increasing urea concentrations also makes solutions more viscous. […] Further, the natural log of k+ against concentration of urea is linear, with a gradient of m = 0.55 (±0.02) M^–1 (Figure 3D).
(§7) Association kinetics were monitored by following the change in intrinsic fluorescence on an SX18 or SX20 stopped-flow spectrometer (Applied Photophysics). All PUMA solutions were incubated at 25 °C for 30 min before use to allow for dissociation of oligomers. Because of mixing artifacts, data collected before the first 5 ms were removed before fitting. Proteins were mixed at near equal (1–0.25 μM) concentrations. Association kinetics were analyzed using eq 3([51]) that describes irreversible association of two proteins at initial concentrations [A]0 and [B]0: [drawing 3] 3 where F is fluorescence, F0 the initial fluorescence, ΔF is the fluorescence amplitude of the reaction, [A]0 is the initial concentration of one protein, [B]0 the other, x = [B]0/[A]0, k+ is the association rate constant, and t is time. Where repeat measurements were made, standard errors are shown as error bars. Errors were propagated using standard equations.

Mcl-1 [7] = molecular target: T1, Mcl-1; assay: Viscosity dependence of association rate constant (glucose); type: binding; details: glucose as viscogen; relative rate constant vs relative viscosity
Description: We measured k+ in varying concentrations of the small-molecule viscogen glucose and the observed k+ did indeed match the predicted rate constant (k0η0/η) (Figure 2B) and produce the standard viscosity plot[37] (k0/k+ vs η/η0) with the expected slope for a ‘diffusion-limited’ reaction, ∼1 (Figure 2C).
as §7

Mcl-1 [8] = molecular target: T1, Mcl-1; assay: Circular dichroism of 1:1 complex with Mcl-1; type: binding; details: CD
Source text: as §6

Mcl-1 [9] = molecular target: T1, Mcl-1; assay: Ionic strength dependence of association rate constant (fit to eq 4); type: binding
Description: Unless otherwise stated, experiments were carried out in 50 mM sodium phosphate, pH 7.0. For the ionic strength dependence of association protein and peptide were exchanged to the low ionic strength 10 mM MOPS, pH 7.0, buffer (I = 0.004 M) and then ionic strength was controlled using [NaCl]. NaOH was titrated to maintain neutral pH upon addition of NaCl.
as §7, with “equations. […]” for “equations.”

Mcl-1 [10] = molecular target: T1, Mcl-1; assay: Temperature dependence of association rate constant; type: binding; details: stopped-flow fluorescence
Description: as §7

[11] = molecular target: truncated mouse Mcl-1 (induced myeloid leukemia cell differentiation protein), 151 N-terminal and 23 C-terminal residues removed (mouse) (UniProt P97287); assay: stopped-flow fluorescence kinetics; intrinsic fluorescence; protein and peptide mixed at near equal concentrations (1-0.25 uM), also pseudo-first-order conditions; 50 mM sodium phosphate, pH 7.0; fit to irreversible association (eq 3)
[12] = molecular target: T2, truncated mouse Mcl-1 (induced myeloid leukemia cell differentiation protein), 151 N-terminal and 23 … (mouse, UniProt P97287 152-308); assay: as above; details: both partners purified
[13] = molecular target: T2, truncated mouse Mcl-1 (induced myeloid …); assay: fluorescence kinetics after manual mixing; Mcl-1 and PUMA solutions manually mixed at nanomolar concentrations, fluorescence followed; fit to a model with association and dissociation; details: both partners purified
[14] = molecular target: the molecule itself; assay: SEC + other: concentration dependent circular dichroism and denaturing SDS-PAGE; PUMA peptide alone at concentrations above 2 uM; reversible oligomerization
[15] = Mcl-1 urea unfolding by intrinsic tryptophan fluorescence; type: physicochemical, mouse; details: 1 µM Mcl-1, 25 °C, 50 mM PO4 pH 7.0, excitation 280 nm, emission 360 nm
Description: Figure S8. Mcl-1 remains folded up to 3.5 M urea. Mcl-1 fraction folded calculated
from the intrinsic tryptophan fluorescence of Mcl-1 (1 µM Mcl-1, 25 °C, 50 mM PO 4
pH 7.0, excitation at 280 nm, 10 nm pathlength, emission at 360 nm, 5nm pathlength).

fluorescence emission maximum [2]: 360 nm
change in helicity with temperature ([3]; 1 µM, 10 mm pathlength cuvette, 15–60 °C, qualitative): less helical at higher temperatures
residual helicity in the unbound state ([3]; mean residue ellipticity at 222 nm, 50 mM PO4, pH 7.0, 25 °C): ~20%
concentration above which reversible oligomerization to highly α-helical structure occurs ([5]; concentration dependent CD, size-exclusion chromatography and denaturing SDS-PAGE): above 2 μM
concentration at which oligomers are visible on gel ([5]; denaturing SDS-PAGE): 10 to 100 µM
m, gradient of ln(k+) against urea concentration (Mcl-1 [6]; urea 0 upward, stopped-flow): 0.55 (±0.02) M^–1
slope of viscosity plot (k0/k+ vs η/η0) (Mcl-1 [7]): 1.13 ± 0.02
rate constant in the absence of long-range electrostatics k+basal (Mcl-1 [9]; 10 mM MOPS, pH 7.0 (I = 0.004 M), ionic strength controlled with NaCl, fit to eq 4, a set to 6 Å): 6 (±1) × 10^5 M^–1 s^–1
kon (Mcl-1 [9]; read-out: association rate constant k+ at high ionic strength): 100000 to 1e+06 M⁻¹ s⁻¹
Molecule: Ac-VEEEEWAREIGAQLRRIADDLNAQYERRRQEEQH-NH2 [PUMA peptide]
dissociation of preformed Mcl-1 PUMA complex (Mcl-1 [1]): No solvent conditions could be found where preformed Mcl-1 PUMA complex could be observed to dissociate without unfolding the structured Mcl-1
change in intrinsic helicity with ionic strength and urea ([3]; 1 µM, 10 mm pathlength cuvette, urea 0–3 M, I 4–214 mM, qualitative): showed little ionic strength dependence but was reduced in the presence of urea
affinity for folded Bcl-2 members relative to other BH3 peptides (folded Bcl-2 members): greater affinity than most other BH3 peptides
overall fluorescence change upon complex formation (Mcl-1 [4]): significant increase in overall fluorescence upon complex formation
effect of urea on k+ (Mcl-1 [6]; increasing urea, compared with prediction from viscosity k0η0/η): decreased by significantly more than what would be expected due to viscosity effects alone
helicity on binding Mcl-1 (Mcl-1 [8]): increased α-helicity relative to the two proteins in isolation
effect of temperature on association (Mcl-1 [10]): An increase in temperature accelerates association

kon [11]: 1.29e+07 M⁻¹ s⁻¹
Molecule: GB1-PUMA: 90 aa chain containing a soluble GB1 domain fused to the N-terminus of the 34 aa PUMA peptide (from UniProt Q99ML1 128-161)

kon [12]: 1.59e+07 M⁻¹ s⁻¹
Kd [13]: 100 pM
koff [13]: 0.0016 s⁻¹
Molecule: Ac-VEEEEWAREIGAQLRRIADDLNAQYERRRQEEQH-NH2 (peptide, UniProt Q99ML1 128-161, looked up) [Mouse PUMA peptide, residues 128-161, M144I, N-terminal acetylation and C-terminal amidation]
binding result [14]: binds

B1: Mcl-1: truncated mouse Mcl-1 (UniProt P97287) with 151 N-terminal residues and 23 C-terminal residues removed; GS added at N-terminus (protein)
chain: GSEDDLYRQSLEIISRYLREQATGSKDSKPLGEAGAAGRRALETLRRVGDGVQRNHETAFQGMLRKLDIKNEGDVKSFSRVMVHVFKDGVTNWGRIVTLISFGAFVAKHLKSVNQESFIEPLAETITDVLVRTKRDWLVKQRGWDGFVEFFHVQDLEGG
modifications: left off: His6, N-terminal, cleaved
notes: truncated mouse Mcl-1 (UniProt P97287) with 151 N-terminal residues and 23 C-terminal residues removed; GS added at N-terminus
fluorescence emission maximum [2]: 330 nm
urea concentration up to which protein remains folded [15]: 3.5 M
